In US20070203112A1, “BLADDER CANCER TREATMENT AND METHODS” (priority 2006, published 2007):

Tested on: DLD-1 multicell layers
Assay: Penetration of EO9 through DLD-1 multicell layers (transwell apparatus, HPLC)
Assay type: in vitro ADME, human
Experimental: The cell line used in this study was DLD-1 human colon adenocarcinoma cells which was selected because of its ability to form tight junctions between cells thereby forming a continuous ‘barrier’ across which the drug must cross. To assess drug penetration, drugs were added to the top chamber and the concentration of drug in the bottom chamber was determined over a range of time intervals.
DLD-1 cells (2.5×10^5 in 200 μl of medium) were added to the top chamber and allowed to settle and attach to the membrane for approximately 3 hours at 37° C. in a CO2 enriched (5%) atmosphere. Once cells attached, the transwell was inserted into one well of a 24 well plate and 600 μl media was added to the bottom chamber. The apparatus was then incubated at 37° C. for 4 days with daily media changes to both the upper and lower chamber. […] For each assay, 3 transwells were removed for histological examination and accurate determination of thickness and integrity (see below for details).
Throughout all procedures, the media used was as described above except for the fact that phenol red free media was used (phenol red elutes very close to EO9 on the chromatograms). EO9 was added to the top chamber at t=0 in a volume of 100 μl and the bottom chamber contained 600 μl of media (constantly stirred). […]

## Cn1c(/C=C/CO)c(CO)c2c1C(=O)C=C(N1CC1)C2=O [EO9, 3-hydroxymethyl-5-aziridinyl-1-methyl-2-(1H-indole-4,7-dione)-propenol]
As the concentration of PG increases, 347 μM in top chamber, 10 minute intervals over 1 hour
  multicell layer penetration rate of EO9: decreases
At any of the evaluated time points of the penetration experiment
  metabolites or breakdown products observed: No obvious metabolites or breakdown products were observed
